Data reported in paper PMC11638965, “Leveraging Dual-Ligase Recruitment to Enhance Protein Degradation via a Heterotrivalent Proteolysis Targeting Chimera” (Journal of the American Chemical Society, 2024).

Key:
Test in all cases: Western blot dose-response degradation in homozygous HiBiT-BromoTag-BRD4 HEK293 cells
[1] = test system: BromoTag-BRD4 (BRD4^Long); type: cell-based, human; details: for pDC50 BRD4Long: homozygous BromoTag-BRD4 HEK293 cells (Table S8)
Experimental: (§1) Cell Culture HEK293 cells were obtained from ATCC. HEK293 was cultured in DMEM supplemented with 10% (v/v) fetal bovine serum (FBS), 1% […] and 1% (v/v) penicillin/streptomycin (pen/strep) at 37 °C, 5% CO2, and 95% humidity.
(§2) To perform the single gRNA Cas9 CRISPR KI of BromoTag into BRD4 in HEK293. HEK293 cells were plated at a density of 5 × 10^5 cells into individual wells of a six-well plate in 1 mL of DMEM and left overnight to adhere to the plate. The cells were subsequently transfected the following day using GeneJuice lipofectamine reagent simultaneously with a custom donor vector pMK-RQ containing 500bp BRD4 homology arms on either side of an eGFP-IRES-HiBiT-BromoTag and two individual pBABED vector harboring U6-sgRNA and puromycin expression cassettes containing two BRD4 targeting gRNA sequences: […] and […]. The construction of these plasmids was performed by Thomas Macartney of the MRC-PPU CRISPR services. The following day cells were washed with PBS before fresh DMEM media was applied cells were left to recover in DMEM for a further 4 days. Cells were subsequently FACS sorted for GFP expression and expanded from single cells. HEK293 clones were validated for eGFP-IRES-HiBIT-BromoTag-BRD4 integration via WB, junction PCR and sequencing.
(§3) Dose–response degradation assay 97 of was performed on the genotype verified eGFP-IRES-HiBIT-BromoTag-BRD4 homozygous HEK293 cell lines. The cells were plated at a density of 5 × 10^5 cells per well of a six well plate a day prior to initiation of the experiment. 97 was dissolved into a 10 mM concentrated stock solution in DMSO from which 97 was further diluted to a working concentration range of 10 μM to 10 pM in DMEM and was subsequently added to cells. Additional controls including, vehicle, AGB1 (1 μM) and cis-AGB1 (1 μM) were similarly added to cells alongside 97 treatments. Cells were left to incubate with compound for 4 h at 37 °C, 5% CO2, and 95% humidity. Cells were then subsequently washed twice with PBS before being harvested in RIPA buffer supplemented with protease inhibitor cocktail and Benzonase Nuclease before being store at −20 °C.
Total protein quantity was determined using the BCA protein assay. Protein concentration was determined using the BCA assay. Samples were then prepared in LDS buffer and subsequently loaded onto NuPAGE 4–12% Bis-Tris Midi gels, followed by the transfer of the proteins onto nitrocellulose membranes. The membranes were blocked for 1 h prior to incubation with the primary antibodies using 5% Milk TBST. […] All Western blots were analyzed for band intensities using Image Lab (Bio-Rad). The data extracted from these blots were then plotted and analyzed using Prism (v. 10.2.2, GraphPad). […]

[2] = target: T1, BromoTag-BRD4 (BRD4^Short) (Homo sapiens, UniProt O60885, L387A); type: cell-based
T1 construct: homozygous endogenous HiBiT-BromoTag-BRD4 HEK293 cell line; endogenous in cells; host or cells: HEK293, homozygous CRISPR knock-in eGFP-IRES-HiBiT-BromoTag-BRD4
Experimental: as §1, §2, §3
(§4) Total protein quantity was determined using the BCA protein assay. Protein concentration was determined using the BCA assay. Samples were then prepared in LDS buffer and subsequently loaded onto NuPAGE 4–12% Bis-Tris Midi gels, followed by the transfer of the proteins onto nitrocellulose membranes. The membranes were blocked for 1 h prior to incubation with the primary antibodies using 5% Milk TBST. Membranes were incubated at 4 °C in either BRD4(Ab128874), BRD3(Ab50818) or BRD2(Ab139690) primary antibody overnight. Following overnight incubation, the membranes were incubated with complementary IRDye 800CW secondary antibodies and a hFAB Rhodamine Anti-Tubulin Primary Antibody (loading control) for 1 h and then imaged with a Bio-Rad imager. All Western blots were analyzed for band intensities using Image Lab (Bio-Rad). The data extracted from these blots were then plotted and analyzed using Prism (v. 10.2.2, GraphPad). All Western blotting figures were developed in Adobe Illustrator.

BRD2 = target: T2, BRD2 (Homo sapiens, UniProt P25440); type: cell-based
T2 construct: HiBiT, is appended to the N-terminus of endogenous BRD2, BRD3, and BRD4; endogenous in cells
Experimental: as §1, §2, §3, §4

BRD3 = target: T3, BRD3 (Homo sapiens, UniProt Q15059); type: cell-based
T3 construct: HiBiT, is appended to the N-terminus of endogenous BRD2, BRD3, and BRD4; endogenous in cells
Experimental: as §1, §2, §3, §4

CRBN = CRBN (Homo sapiens, UniProt Q96SW2); type: cell-based; design: Western blot data for BET, CRBN and VHL protein levels; endogenous in cells; host or cells: HEK293 (ATCC)
Experimental: as §1, §2
Dose–response degradation assay 97 of was performed on the genotype verified eGFP-IRES-HiBIT-BromoTag-BRD4 homozygous HEK293 cell lines. The cells were plated at a density of 5 × 10^5 cells per well of a six well plate a day prior to initiation of the experiment. 97 was dissolved into a 10 mM concentrated stock solution in DMSO from which 97 was further diluted to a working concentration range of 10 μM to 10 pM in DMEM and was subsequently added to cells. […]
Total protein quantity was determined using the BCA protein assay. Protein concentration was determined using the BCA assay. […] All Western blots were analyzed for band intensities using Image Lab (Bio-Rad). The data extracted from these blots were then plotted and analyzed using Prism (v. 10.2.2, GraphPad). […]

[3] = homozygous BromoTag-BRD4 HEK293 cells (Table S8)
[4] = HiBiT-BromoTag-BRD4 HEK293, 4 hours (Figure 12)
[5] = HiBiT-BromoTag-BRD4 HEK293, 4 hours, n = 1 (Figure 12)

T3 sequence (Q15059 whole entry): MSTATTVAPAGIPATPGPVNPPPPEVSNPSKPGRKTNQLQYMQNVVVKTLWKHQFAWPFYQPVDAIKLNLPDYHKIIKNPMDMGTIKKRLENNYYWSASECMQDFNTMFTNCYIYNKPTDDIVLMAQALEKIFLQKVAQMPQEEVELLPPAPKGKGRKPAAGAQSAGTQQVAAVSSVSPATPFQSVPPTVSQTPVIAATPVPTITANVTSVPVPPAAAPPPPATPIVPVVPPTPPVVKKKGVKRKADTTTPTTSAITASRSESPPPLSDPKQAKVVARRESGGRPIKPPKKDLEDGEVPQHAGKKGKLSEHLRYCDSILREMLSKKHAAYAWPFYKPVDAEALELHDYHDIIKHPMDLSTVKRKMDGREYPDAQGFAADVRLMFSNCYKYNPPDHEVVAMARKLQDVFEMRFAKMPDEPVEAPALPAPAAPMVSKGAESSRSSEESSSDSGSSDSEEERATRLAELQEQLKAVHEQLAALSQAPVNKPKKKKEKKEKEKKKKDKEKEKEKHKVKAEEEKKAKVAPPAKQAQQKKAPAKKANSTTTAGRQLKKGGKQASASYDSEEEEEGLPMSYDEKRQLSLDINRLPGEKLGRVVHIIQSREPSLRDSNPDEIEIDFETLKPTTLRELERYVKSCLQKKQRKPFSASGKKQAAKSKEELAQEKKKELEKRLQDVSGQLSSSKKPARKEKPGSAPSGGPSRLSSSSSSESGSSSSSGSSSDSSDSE
T2 sequence (P25440 whole entry): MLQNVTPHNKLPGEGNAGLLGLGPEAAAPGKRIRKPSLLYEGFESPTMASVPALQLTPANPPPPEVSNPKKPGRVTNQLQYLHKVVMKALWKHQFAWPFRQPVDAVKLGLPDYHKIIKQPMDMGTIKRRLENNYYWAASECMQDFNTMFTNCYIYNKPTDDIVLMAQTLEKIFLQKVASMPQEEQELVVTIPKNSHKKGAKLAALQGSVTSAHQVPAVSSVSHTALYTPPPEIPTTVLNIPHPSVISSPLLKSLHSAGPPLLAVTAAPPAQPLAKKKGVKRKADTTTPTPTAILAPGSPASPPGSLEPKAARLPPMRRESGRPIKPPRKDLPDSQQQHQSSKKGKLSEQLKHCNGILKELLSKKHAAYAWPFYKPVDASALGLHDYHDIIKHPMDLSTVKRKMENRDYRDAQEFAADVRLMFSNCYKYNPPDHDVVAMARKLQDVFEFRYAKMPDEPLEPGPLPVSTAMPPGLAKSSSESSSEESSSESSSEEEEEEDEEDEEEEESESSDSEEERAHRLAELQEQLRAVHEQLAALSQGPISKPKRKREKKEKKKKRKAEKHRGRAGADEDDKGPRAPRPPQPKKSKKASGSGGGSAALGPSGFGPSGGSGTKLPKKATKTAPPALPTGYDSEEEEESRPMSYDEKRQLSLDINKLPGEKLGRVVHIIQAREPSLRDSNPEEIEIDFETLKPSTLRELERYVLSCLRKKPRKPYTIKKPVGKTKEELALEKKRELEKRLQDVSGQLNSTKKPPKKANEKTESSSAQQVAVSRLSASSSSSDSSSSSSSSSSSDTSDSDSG
Sequence of CRBN (Q96SW2 whole entry): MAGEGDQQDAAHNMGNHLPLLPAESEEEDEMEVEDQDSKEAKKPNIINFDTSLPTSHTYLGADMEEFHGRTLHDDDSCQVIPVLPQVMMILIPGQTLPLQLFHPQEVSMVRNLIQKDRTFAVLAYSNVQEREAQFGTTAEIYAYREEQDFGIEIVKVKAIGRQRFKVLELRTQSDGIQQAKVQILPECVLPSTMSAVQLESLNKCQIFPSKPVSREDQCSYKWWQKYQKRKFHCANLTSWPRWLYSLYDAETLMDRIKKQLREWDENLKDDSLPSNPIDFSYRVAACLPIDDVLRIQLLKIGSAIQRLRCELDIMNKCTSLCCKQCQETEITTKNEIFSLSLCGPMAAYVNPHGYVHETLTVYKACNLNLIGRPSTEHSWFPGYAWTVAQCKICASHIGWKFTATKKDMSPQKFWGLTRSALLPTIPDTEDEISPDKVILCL

SMILES | pDC50 BRD4Long [1] | Dmax % BRD4Short [2, 3] [%] | pDC50 BRD4Short [2, 3] | DC50 [1, 4] [nM] | Dmax BRD4^Long [1, 4] [%] | selectivity window of BromoTag-BRD4 degradation over BRD2 (BRD2; DC50 ratio) [fold] | DC50 (BRD2; [4]) [nM] | Dmax (BRD2; [4]) [%] | Dmax (BRD2; [3]) [%] | selectivity window of BromoTag-BRD4 degradation over BRD3 (BRD3; DC50 ratio) [fold] | DC50 (BRD3; [4]) [nM] | Dmax (BRD3; [4]) [%] | pDC50 BRD3 (BRD3; [3]) | DC50 [2, 4] [nM] | Dmax [2, 4] [%] | fold more potent degradation of CRBN than 27 (CRBN; DC50 2.1 nM vs 75 nM) [fold] | DC50 (CRBN; [5]) [nM] | Dmax (CRBN; [5]) [%]
CC[C@@H](C(=O)OCCOCCOCCOCC(=O)N[C@H](C(=O)N1C[C@H](O)C[C@H]1C(=O)NCc1ccc(-c2scnc2C)cc1)C(C)(C)C)[C@@H]1N=C(c2ccc(Cl)cc2)c2c(sc(C)c2C)-n2c(C)nnc21 [AGB1, reference compound] | 8.0 ± 0.2 | 11 | 8.6 ± 0.1 |  |  |  |  |  |  |  |  |  |  |  |  |  |  | 
CC[C@@H](C(=O)OCCOCCOCCOCC(C)(COCCOCCOCCNc1cc2c(cc1F)C(=O)N(C1CCC(=O)NC1=O)C2=O)COCC(=O)N[C@H](C(=O)N1C[C@H](O)C[C@H]1C(=O)N[C@@H](C)c1ccc(-c2scnc2C)cc1)C(C)(C)C)[C@@H]1N=C(c2ccc(Cl)cc2)c2c(sc(C)c2C)-n2c(C)nnc21 (mixture of isomers) [AB3145 (97), (17S)-11-((2-(2-(2-((2-(2,6-dioxopiperidin-3-yl)-6-fluoro-1,3-dioxoisoindolin-5-yl)amino)ethoxy)ethoxy)ethoxy)methyl)-17-((2S,4R)-4-hydroxy-2-(((S)-1-(4-(4-methylthiazol-5-yl)phenyl)ethyl)carbamoyl)pyrrolidine-1-carbonyl)-11,18,18-trimethyl-15-oxo-3,6,9,13-tetraoxa-16-azanonadecyl (2R)-2-((S)-4-(4-chlorophenyl)-2,3,9-trimethyl-6H-thieno[3,2-f][1,2,4]triazolo[4,3-a][1,4]diazepin-6-yl)butanoate] | 9.9 ± 0.6 |  | 9.9 ± 0.1 | 0.12 | 85 | 6000 | 770 | 50 | 56 | 250 | 33 | 79 | 7.5 ± 0.4 | 0.14 | 86 | ~35 | 2.1 | 77
